Experiments:
Experiment in all cases: Kinase profiling in a biochemical assay panel (mobility shift assays and ELISA), %-inhibition at 1 μM; selectivity entropy
[1] = target: panel of more than 300 wild-type and mutant kinases (313 kinase panel) (Homo sapiens, UniProt P06213); details: kinase INSR; compound at 1 μM
[2] = target: panel of more than 300 wild-type and mutant kinases (313 kinase panel) (Homo sapiens, UniProt P10721); details: kinase KIT; compound at 1 μM
[3] = target: T1, panel of more than 300 wild-type and mutant kinases (313 kinase panel) (Homo sapiens, UniProt P42680); details: kinase TEC; 1 μM
T1 sequence (P42680 1-631): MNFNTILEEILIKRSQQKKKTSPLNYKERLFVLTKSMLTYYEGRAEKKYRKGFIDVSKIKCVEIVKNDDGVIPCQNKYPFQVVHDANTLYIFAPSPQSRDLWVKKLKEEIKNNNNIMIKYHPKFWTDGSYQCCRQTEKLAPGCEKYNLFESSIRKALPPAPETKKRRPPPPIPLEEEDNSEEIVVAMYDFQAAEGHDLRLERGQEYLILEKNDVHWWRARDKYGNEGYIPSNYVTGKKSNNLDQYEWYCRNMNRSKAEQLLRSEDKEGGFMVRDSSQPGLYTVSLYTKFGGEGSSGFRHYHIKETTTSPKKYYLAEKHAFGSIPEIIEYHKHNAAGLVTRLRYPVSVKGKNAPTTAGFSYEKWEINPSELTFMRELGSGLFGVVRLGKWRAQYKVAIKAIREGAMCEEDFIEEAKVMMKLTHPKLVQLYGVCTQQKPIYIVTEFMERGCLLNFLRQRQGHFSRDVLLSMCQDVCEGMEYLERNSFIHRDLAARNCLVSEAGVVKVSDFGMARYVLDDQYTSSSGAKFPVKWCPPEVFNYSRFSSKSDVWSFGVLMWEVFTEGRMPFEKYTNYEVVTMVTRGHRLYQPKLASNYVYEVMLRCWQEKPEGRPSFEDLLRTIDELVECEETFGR

[4] = target: panel of more than 300 wild-type and mutant kinases (313 kinase panel) (Homo sapiens, UniProt Q00534); details: kinase CDK6/CycD3; 1 μM compound
[5] = target: T2, panel of more than 300 wild-type and mutant kinases (313 kinase panel) (Homo sapiens, UniProt Q13163); details: kinase MAP2K5; compound at 1 μM
T2 sequence (Q13163 1-448): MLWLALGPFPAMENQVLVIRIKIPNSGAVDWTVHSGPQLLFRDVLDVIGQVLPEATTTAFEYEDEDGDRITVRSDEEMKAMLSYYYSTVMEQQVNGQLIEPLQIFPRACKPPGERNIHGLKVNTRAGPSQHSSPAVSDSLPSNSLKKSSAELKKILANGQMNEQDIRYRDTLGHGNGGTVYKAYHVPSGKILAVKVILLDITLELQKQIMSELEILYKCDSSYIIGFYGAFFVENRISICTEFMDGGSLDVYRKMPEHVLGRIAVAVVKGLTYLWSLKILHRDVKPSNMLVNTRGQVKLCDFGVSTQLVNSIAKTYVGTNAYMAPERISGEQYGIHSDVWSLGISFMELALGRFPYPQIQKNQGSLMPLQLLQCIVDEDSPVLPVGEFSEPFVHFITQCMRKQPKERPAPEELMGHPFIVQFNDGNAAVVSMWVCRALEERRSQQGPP

[6] = target: T3, panel of more than 300 wild-type and mutant kinases (313 kinase panel) (Homo sapiens, UniProt Q96BR1); details: kinase SGK3; 1 μM
T3 sequence (Q96BR1 1-496): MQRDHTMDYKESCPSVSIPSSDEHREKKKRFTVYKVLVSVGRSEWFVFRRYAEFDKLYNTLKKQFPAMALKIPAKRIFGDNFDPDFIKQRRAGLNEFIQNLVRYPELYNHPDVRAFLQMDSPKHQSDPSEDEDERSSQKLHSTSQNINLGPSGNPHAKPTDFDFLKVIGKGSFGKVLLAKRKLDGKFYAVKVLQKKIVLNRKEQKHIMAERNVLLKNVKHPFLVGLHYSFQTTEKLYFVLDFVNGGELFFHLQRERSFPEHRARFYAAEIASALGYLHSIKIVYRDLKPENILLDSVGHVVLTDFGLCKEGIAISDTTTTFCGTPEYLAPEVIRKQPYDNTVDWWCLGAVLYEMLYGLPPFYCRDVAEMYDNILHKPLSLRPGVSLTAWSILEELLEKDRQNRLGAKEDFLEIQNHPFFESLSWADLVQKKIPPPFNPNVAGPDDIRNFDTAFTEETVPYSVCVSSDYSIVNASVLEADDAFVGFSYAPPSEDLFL

[7] = target: panel of more than 300 wild-type and mutant kinases (313 kinase panel) (Homo sapiens, UniProt Q9Y243); details: kinase AKT3; 1 μM compound
[8] = target: T4, panel of more than 300 wild-type and mutant kinases (313 kinase panel) (Homo sapiens, UniProt Q9Y2U5)
T4 sequence (Q9Y2U5 1-619): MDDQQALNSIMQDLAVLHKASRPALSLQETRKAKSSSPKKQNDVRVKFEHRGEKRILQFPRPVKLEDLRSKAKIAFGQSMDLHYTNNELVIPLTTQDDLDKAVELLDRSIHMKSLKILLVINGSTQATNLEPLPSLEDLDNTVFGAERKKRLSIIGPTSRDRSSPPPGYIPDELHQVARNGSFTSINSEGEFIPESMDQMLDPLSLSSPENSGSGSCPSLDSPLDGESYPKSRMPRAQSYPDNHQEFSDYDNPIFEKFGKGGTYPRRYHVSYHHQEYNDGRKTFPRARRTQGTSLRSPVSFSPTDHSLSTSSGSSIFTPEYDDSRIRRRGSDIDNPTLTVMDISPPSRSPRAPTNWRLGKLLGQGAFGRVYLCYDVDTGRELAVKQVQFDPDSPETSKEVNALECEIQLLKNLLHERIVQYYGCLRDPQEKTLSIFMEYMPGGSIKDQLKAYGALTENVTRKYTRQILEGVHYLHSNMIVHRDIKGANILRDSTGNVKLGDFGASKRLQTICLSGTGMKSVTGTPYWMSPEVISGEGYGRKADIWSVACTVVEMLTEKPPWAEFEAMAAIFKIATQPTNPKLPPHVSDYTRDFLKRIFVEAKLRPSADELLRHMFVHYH

[9] = kinase MAP3K2, compound at 1 μM

panel of more than 300 wild-type and mutant kinases (313 kinase panel) (Homo sapiens, UniProt P10721), sequence (P10721 26-976, change not shown): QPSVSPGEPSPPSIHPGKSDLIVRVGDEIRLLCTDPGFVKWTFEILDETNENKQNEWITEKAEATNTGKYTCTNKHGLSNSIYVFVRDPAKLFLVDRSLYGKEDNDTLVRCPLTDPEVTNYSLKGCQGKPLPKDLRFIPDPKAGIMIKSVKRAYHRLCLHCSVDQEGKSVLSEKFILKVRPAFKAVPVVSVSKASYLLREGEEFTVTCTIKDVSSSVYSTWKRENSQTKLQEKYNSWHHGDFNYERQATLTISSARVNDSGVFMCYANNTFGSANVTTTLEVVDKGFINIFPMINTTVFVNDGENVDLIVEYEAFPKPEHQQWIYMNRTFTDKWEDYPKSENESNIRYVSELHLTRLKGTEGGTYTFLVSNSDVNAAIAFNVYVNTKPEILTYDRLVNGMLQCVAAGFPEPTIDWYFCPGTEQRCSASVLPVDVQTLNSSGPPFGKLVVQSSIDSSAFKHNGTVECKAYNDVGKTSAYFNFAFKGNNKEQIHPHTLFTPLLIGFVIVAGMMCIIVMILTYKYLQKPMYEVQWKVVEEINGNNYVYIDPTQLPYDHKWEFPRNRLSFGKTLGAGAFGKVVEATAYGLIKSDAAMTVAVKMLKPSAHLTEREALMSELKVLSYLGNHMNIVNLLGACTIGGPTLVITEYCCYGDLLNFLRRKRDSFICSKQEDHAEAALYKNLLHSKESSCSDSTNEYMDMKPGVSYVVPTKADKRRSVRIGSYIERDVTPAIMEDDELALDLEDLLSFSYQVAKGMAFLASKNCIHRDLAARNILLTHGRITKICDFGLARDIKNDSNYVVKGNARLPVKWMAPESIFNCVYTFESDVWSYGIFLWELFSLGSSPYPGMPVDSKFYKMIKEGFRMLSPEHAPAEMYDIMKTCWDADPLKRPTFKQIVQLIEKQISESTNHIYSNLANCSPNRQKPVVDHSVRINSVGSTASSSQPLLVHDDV
panel of more than 300 wild-type and mutant kinases (313 kinase panel) (Homo sapiens, UniProt Q9Y243), sequence (Q9Y243 whole entry, change not shown): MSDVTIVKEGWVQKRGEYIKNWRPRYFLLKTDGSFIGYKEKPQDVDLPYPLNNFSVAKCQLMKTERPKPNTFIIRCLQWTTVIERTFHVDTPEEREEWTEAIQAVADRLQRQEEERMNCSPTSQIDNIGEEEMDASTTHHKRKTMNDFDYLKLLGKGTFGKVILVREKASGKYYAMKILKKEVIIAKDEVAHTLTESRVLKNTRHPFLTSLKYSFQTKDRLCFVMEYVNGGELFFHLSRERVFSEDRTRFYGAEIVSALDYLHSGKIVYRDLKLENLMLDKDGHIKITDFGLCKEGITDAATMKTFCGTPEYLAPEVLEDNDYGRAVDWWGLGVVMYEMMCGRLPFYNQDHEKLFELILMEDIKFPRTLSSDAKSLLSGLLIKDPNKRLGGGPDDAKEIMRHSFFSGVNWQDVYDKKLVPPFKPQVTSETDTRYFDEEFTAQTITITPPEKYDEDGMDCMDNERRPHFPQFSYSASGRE
panel of more than 300 wild-type and mutant kinases (313 kinase panel) (Homo sapiens, UniProt P06213), sequence (P06213 28-1382, stated change not applied): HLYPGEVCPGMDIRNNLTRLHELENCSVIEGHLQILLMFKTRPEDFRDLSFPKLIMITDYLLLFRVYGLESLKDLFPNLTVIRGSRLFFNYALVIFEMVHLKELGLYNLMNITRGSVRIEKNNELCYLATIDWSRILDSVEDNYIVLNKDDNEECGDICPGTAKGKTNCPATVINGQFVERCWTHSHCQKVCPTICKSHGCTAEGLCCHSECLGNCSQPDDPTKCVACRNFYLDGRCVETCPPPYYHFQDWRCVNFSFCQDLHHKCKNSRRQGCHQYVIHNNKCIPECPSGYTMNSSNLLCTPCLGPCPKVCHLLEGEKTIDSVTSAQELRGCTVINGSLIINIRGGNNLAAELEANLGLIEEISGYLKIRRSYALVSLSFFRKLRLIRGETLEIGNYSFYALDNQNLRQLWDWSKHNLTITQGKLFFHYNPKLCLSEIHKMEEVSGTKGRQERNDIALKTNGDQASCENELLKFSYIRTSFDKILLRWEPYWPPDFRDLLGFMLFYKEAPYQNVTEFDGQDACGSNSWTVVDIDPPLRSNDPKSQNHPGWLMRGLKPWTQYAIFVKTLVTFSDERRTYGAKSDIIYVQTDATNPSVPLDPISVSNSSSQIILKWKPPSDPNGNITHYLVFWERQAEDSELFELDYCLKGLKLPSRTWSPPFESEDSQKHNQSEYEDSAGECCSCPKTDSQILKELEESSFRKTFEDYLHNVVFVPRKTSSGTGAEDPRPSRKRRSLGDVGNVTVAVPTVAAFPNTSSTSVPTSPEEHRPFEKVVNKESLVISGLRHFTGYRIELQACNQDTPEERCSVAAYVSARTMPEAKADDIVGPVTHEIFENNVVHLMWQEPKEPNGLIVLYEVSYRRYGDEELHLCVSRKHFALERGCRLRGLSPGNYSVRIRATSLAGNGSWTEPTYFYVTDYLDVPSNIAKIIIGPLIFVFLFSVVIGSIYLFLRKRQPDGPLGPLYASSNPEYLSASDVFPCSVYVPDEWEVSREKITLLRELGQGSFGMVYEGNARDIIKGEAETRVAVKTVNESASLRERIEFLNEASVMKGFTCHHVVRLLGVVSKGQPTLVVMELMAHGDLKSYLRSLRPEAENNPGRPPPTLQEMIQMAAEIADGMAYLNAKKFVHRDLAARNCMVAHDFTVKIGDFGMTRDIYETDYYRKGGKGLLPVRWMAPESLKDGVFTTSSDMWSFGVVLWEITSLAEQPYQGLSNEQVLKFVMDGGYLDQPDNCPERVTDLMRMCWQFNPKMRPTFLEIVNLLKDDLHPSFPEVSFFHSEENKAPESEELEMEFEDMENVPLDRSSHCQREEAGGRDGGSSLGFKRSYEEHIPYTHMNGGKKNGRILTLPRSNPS

SMILES: CO[C@H]1C[C@@H]2CC[C@@H](C)[C@@](O)(O2)C(=O)C(=O)N2CCCC[C@H]2C(=O)O[C@H]([C@H](C)C[C@@H]2CC[C@@H](OC(=O)C(C)(CO)CO)[C@H](OC)C2)CC(=O)[C@H](C)/C=C(\C)[C@@H](O)[C@@H](OC)C(=O)[C@H](C)C[C@H](C)/C=C/C=C/C=C/1C [temsirolimus]
- %-inhibition of INSR [1]: -4%
- %-inhibition of KIT [2]: -8%
- %-inhibition of TEC [3]: -9%
- %-inhibition, CDK6/CycD3 [4]: -3.18%
- %-inhibition of MAP2K5 [5]: -1.51%
- %-inhibition of SGK3 [6]: -4%
- %-inhibition, AKT3 [7]: -1.72%
- %-inhibition of MAP3K2 [8, 9]: 5.58%

SMILES: CNC(=O)c1cc(Oc2ccc(NC(=O)Nc3ccc(Cl)c(C(F)(F)F)c3)c(F)c2)ccn1 [regorafenib]
- %-inhibition of INSR [1]: -2.79%
- %-inhibition of KIT [2]: 100%
- %-inhibition of TEC [3]: -8%
- %-inhibition, CDK6/CycD3 [4]: -1.31%
- %-inhibition of MAP2K5 [5]: 17%
- %-inhibition of SGK3 [6]: -8%
- %-inhibition, AKT3 [7]: -4.23%
- %-inhibition of MAP3K2 [8, 9]: 19%

SMILES: CO[C@H]1C[C@@H]2CC[C@@H](C)[C@@](O)(O2)C(=O)C(=O)N2CCCC[C@H]2C(=O)O[C@H]([C@H](C)C[C@@H]2CC[C@@H](OCCO)[C@H](OC)C2)CC(=O)[C@H](C)/C=C(\C)[C@@H](O)[C@@H](OC)C(=O)[C@H](C)C[C@H](C)/C=C/C=C/C=C/1C [everolimus]
- %-inhibition of INSR [1]: -3.77%
- %-inhibition of KIT [2]: -10%
- %-inhibition of TEC [3]: -4%
- %-inhibition, CDK6/CycD3 [4]: -3%
- %-inhibition of MAP2K5 [5]: 1.34%
- %-inhibition of SGK3 [6]: -6.4%
- %-inhibition, AKT3 [7]: -3.39%
- %-inhibition of MAP3K2 [8, 9]: 7.56%

SMILES: COc1cc2nccc(Oc3ccc(NC(=O)C4(C(=O)Nc5ccc(F)cc5)CC4)cc3)c2cc1OC [cabozantinib]
- %-inhibition of INSR [1]: 35%
- %-inhibition of KIT [2]: 97%
- %-inhibition of TEC [3]: 43%
- %-inhibition, CDK6/CycD3 [4]: 0.312%
- %-inhibition of MAP2K5 [5]: 17%
- %-inhibition of SGK3 [6]: -1.1%
- %-inhibition, AKT3 [7]: -3%
- %-inhibition of MAP3K2 [8, 9]: 9%

SMILES: Cc1nc(Nc2ncc(C(=O)Nc3c(C)cccc3Cl)s2)cc(N2CCN(CCO)CC2)n1 [dasatinib]
- %-inhibition, CDK6/CycD3 [4]: 9%
- %-inhibition of SGK3 [6]: 1.18%

SMILES: COc1cc2c(Nc3ccc(Br)cc3F)ncnc2cc1OCC1CCN(C)CC1 [vandetanib]
- %-inhibition of INSR [1]: 3.63%
- %-inhibition of TEC [3]: 15%
- %-inhibition, CDK6/CycD3 [4]: -1.19%
- %-inhibition of MAP2K5 [5]: 43%
- %-inhibition of SGK3 [6]: -8%
- %-inhibition, AKT3 [7]: -0.887%
- %-inhibition of MAP3K2 [8, 9]: 14%

SMILES: CC(C)(C)c1nc(-c2cccc(NS(=O)(=O)c3c(F)cccc3F)c2F)c(-c2ccnc(N)n2)s1 [dabrafenib]
- %-inhibition of INSR [1]: 7.51%
- %-inhibition of KIT [2]: 59%
- %-inhibition of TEC [3]: 38%
- %-inhibition of MAP2K5 [5]: 70%
- %-inhibition of SGK3 [6]: 0.0854%
- %-inhibition of MAP3K2 [8, 9]: 71%

SMILES: Cc1ccc(Nc2nccc(N(C)c3ccc4c(C)n(C)nc4c3)n2)cc1S(N)(=O)=O [pazopanib]
- %-inhibition of INSR [1]: 22%
- %-inhibition of KIT [2]: 95%
- %-inhibition of TEC [3]: 48%
- %-inhibition, CDK6/CycD3 [4]: 9%
- %-inhibition of MAP2K5 [5]: 13%
- %-inhibition of SGK3 [6]: -3.17%
- %-inhibition, AKT3 [7]: -0.112%
- %-inhibition of MAP3K2 [8, 9]: 46%

SMILES: N#CC[C@H](C1CCCC1)n1cc(-c2ncnc3[nH]ccc23)cn1 [ruxolitinib]
- %-inhibition of INSR [1]: 0.837%
- %-inhibition of KIT [2]: 3%
- %-inhibition of TEC [3]: 18%
- %-inhibition, CDK6/CycD3 [4]: -6%
- %-inhibition of MAP2K5 [5]: 7%
- %-inhibition of SGK3 [6]: -5%
- %-inhibition, AKT3 [7]: 2%
- %-inhibition of MAP3K2 ([8]; 1 µM): 75%

SMILES: C[C@@H](Oc1cc(-c2cnn(C3CCNCC3)c2)cnc1N)c1c(Cl)ccc(F)c1Cl [crizotinib]
- %-inhibition of KIT [2]: 16%
- %-inhibition of TEC [3]: 1.53%
- %-inhibition, CDK6/CycD3 [4]: 0.0624%
- %-inhibition of MAP2K5 [5]: 24%
- %-inhibition of SGK3 [6]: -3%
- %-inhibition, AKT3 [7]: -1.83%

SMILES: CCCS(=O)(=O)Nc1ccc(F)c(C(=O)c2c[nH]c3ncc(-c4ccc(Cl)cc4)cc23)c1F [vemurafenib]
- %-inhibition of INSR [1]: 17%
- %-inhibition of KIT [2]: 58%
- %-inhibition of TEC [3]: -0.191%
- %-inhibition, CDK6/CycD3 [4]: 2.43%
- %-inhibition of MAP2K5 [5]: 32%
- %-inhibition of SGK3 [6]: -2.38%
- %-inhibition, AKT3 [7]: -0.678%
- %-inhibition of MAP3K2 [8, 9]: 21%

SMILES: O=S(=O)(c1cccc2cnccc12)N1CCCNCC1 [fasudil]
- %-inhibition of INSR [1]: -11%
- %-inhibition of KIT [2]: -0.648%
- %-inhibition of TEC [3]: -7%
- %-inhibition, CDK6/CycD3 [4]: -5.68%
- %-inhibition of MAP2K5 [5]: 13%
- %-inhibition of SGK3 [6]: 7%
- %-inhibition, AKT3 [7]: 6%
- %-inhibition of MAP3K2 [8, 9]: -15%

SMILES: COc1cc(Nc2c(C#N)cnc3cc(OCCCN4CCN(C)CC4)c(OC)cc23)c(Cl)cc1Cl [bosutinib]
- %-inhibition of INSR [1]: 65%
- %-inhibition of KIT [2]: 23%
- %-inhibition of TEC [3]: 58%
- %-inhibition, CDK6/CycD3 [4]: 0.0624%
- %-inhibition of MAP2K5 [5]: 63%
- %-inhibition of SGK3 [6]: -7%
- %-inhibition of MAP3K2 ([8]; 1 µM): 93%

SMILES: Cc1ccc(C(=O)Nc2ccc(CN3CCN(C)CC3)c(C(F)(F)F)c2)cc1C#Cc1cnc2cccnn12 [ponatinib]
- %-inhibition of INSR [1]: 43%
- %-inhibition of TEC [3]: 79%
- %-inhibition, CDK6/CycD3 [4]: 25%
- %-inhibition of MAP2K5 [5]: 61%
- %-inhibition of SGK3 [6]: -1.1%
- %-inhibition of MAP3K2 [8, 9]: 79%

Reference: publication PMC3961306, “Comparison of the Cancer Gene Targeting and Biochemical Selectivities of All Targeted Kinase Inhibitors Approved for Clinical Use” (PLoS ONE, 2014)
